Results reported in US20220339135A1, “COMPOSITIONS AND METHODS FOR MODULATING AN INFLAMMATORY RESPONSE” (Enzychem Lifesciences Corporation, priority 2019, published 2022).
Where two headings read alike, the source gives them in different places.

Experiments:
[1] = test system: intracellular ROS in Raw264.7 cells; experiment: LPS-induced intracellular ROS production (CM-H2DCFDA); assay type: cell-based; details: LPS/PLAG treatment
Procedure: Raw264.7 cells were divided into two groups: 1) LPS treated group and 2) LPS/PLAG treated group. For LPS treated group, cells were stimulated with LPS (100 ng/ml) for 0, 15, 30, 45, 60, 75, 90, 105, 120 minutes. For LPS/PLAG treatment, cells were pre-incubated with PLAG (100 ng/ml) for 1 hour and then stimulated with LPS (100 ng/ml) for 0, 15, 30, 45, 60, 75, 90, 105, 120 minutes. To detect intracellular ROS, cells were treated with […]CM-H2DCFDA (Invitrogen, Carlsbad, Calif., USA) for 30 minutes before LPS treatment for LPS treated group and before PLAG treatment for LPS/PLAG treated group. For confocal microscopy analysis, cells were washed with PBS and mounted in DAPI-containing fluorescence microscopy mounting medium (Invitrogen). Samples were analyzed with a laser scanning confocal microscope (Carl Zeiss, Oberkochen, Germany).
Raw264.7 cells were divided into two groups: 1) LPS treated group and 2) LPS/PLAG treated group. For the LPS treated group, cells were treated with 100 μg/ml of DMSO (as solvent control) for 1 hour and treated with LPS (100 ng/ml) for 15, 30, 60, and 120 minutes. For LPS/PLAG treated group, cells were treated with PLAG (100 μg/ml) for 1 hour and treated with LPS (100 ng/ml) for 15, 30, 60, and 120 minutes. […] These were analyzed by confocal microscopy. […]

[2] = test system: intracellular ROS in HaCaT cells; experiment: IMQ-induced intracellular ROS; assay type: cell-based; details: IMQ/PLAG treated cells
Procedure: HaCaT cells were divided into two groups: 1) IMQ treated group and 2) IMQ/PLAG treated group. For IMQ treated group, cells were stimulated with IMQ (5 μg/ml) for 0, 2.5, 5, 7.5, 10, 15, 30, 60, 120 minutes. For IMQ/PLAG treated group, cells were pre-incubated with PLAG (100 μg/ml) for 1 hour and then stimulated with IMQ (5 μg/ml) for 0, 2.5, 5, 7.5, 10, 15, 30, 60, 120 minutes. (A) To detect ADORA2A on the membrane surface, cells were fixed with 2% paraformaldehyde (Sigma-Aldrich) and were blocked with PBS containing 1% BSA (Gibco, Waltham, Mass., USA). They were incubated with rabbit anti-ADORA2A antibody (Thermo) and Alexa488 conjugated anti-rabbit IgG (Invitrogen) without permeabilization. (B) To detect intracellular ROS, cells were treated with FITC conjugated-CM-H2DCFDA (Invitrogen, Carlsbad, Calif., USA) for 30 min before PLAG treating. For confocal microscopy analysis, cells were washed with PBS and mounted in DAPI-containing fluorescence microscopy mounting medium (Invitrogen). Samples were analyzed with a laser scanning confocal microscope (Carl Zeiss, Oberkochen, Germany).

NETosis of dHL-60 cells = experiment: IMQ-induced NETosis, confocal microscopy of DNA-elastase complex; assay type: cell-based, human; details: PLAG 10 or 100 μg/mL, dose-dependent
Procedure: HL-60 cells were differentiated (dHL-60) to neutrophil-like cells in the culture medium with the addition of 1.3% DMSO (Sigma) for 5 days in a humidified atmosphere at 37° C. without changing the medium. dHL-60 cells (2×10^5 cells/mL) were loaded with 5 μM fluo-4 AM for 45 minutes and washed three times with warmed modified (37° C.) HBSS buffer (137.93 mM NaCl, 5.33 mM KCl, 2 mM CaCl2, 1 mM MgSO4, 2.38 mM HEPES, 5.5 mM glucose, pH to 7.4). The cells were seeded on black-walled 96-well plates and then treated with vehicle (0.1% DMSO), imiquimod (10 μg/mL) or PLAG (10 or 100 μg/mL) just before measurement. Baseline fluorescence was measured before treatment, and fluorescence was read every 20 s for 700 s using an excitation wavelength of 494 nm, an emission wavelength of 516 nm in a FlexStation 3 microplate reader (Molecular Devices). Fluorescence values were reported as F/Fo according to the calculation: [ΔF=(494 nm)f/(516 nm)f−(494 nm)0/(516 nm)0]. […]
HL-60 cells were harvested and detected extracellular DNA-elastase complex by using ELISA and visualized by using confocal microscopy (×400) or scanning electron microscope (SEM) (×8000). HL-60 cells were washed with PBS and mounted in DAPI-containing fluorescence microscopy mounting medium (Invitrogen). Samples were analyzed with a laser scanning confocal microscope (Carl Zeiss, Oberkochen, Germany).

HMGB1 and S100A9 = experiment: Radiation-induced DAMP molecules in mice serum, western blot; assay type: in vivo; details: 6.11Gy, PLAG 50, 250 mg/kg oral 3 days
Procedure: The total-body of mice were irradiated with a gamma-ray of 6.11Gy on day 0. After that, the body weight of 1 day was measured and divided into 3 groups according to the average. PLAG (50, 250 mg/kg) or PBS was orally administered for 3 days from 1 day and sacrificed on the 3rd day. Add 3 ul serum to 97 ul of 1×SDS sample buffer and boiled for 10 min. Proteins from each sample were separated by sodium dodecyl sulfate-polyacrylamide gel electrophoresis on 8% polyacrylamide gels and the proteins were blotted onto a PVDF membrane (Millipore Corporation, Germany). The membrane was blocked with 5% non-fat dried milk (BD bioscience) in PBS containing 0.05% Tween-20 (Calbiochem) for 1 h. The membrane was incubated with anti-HMGB1 (abcam), anti-MRP14 (abcam) at 4° C. overnight. After washing with PBS containing 0.05% Tween-20, the membrane was stained with goat anti-rabbit IgG peroxidase (ENZO). Target proteins were detected with Immobilon Western Chemiluminescent HRP Substrate (Millipore Corporation).

[3] = test system: chemoradiation-induced oral mucositis
[4] = Day 9, ChemoRT + PLAG 250 mg/kg

CCCCC/C=C\C/C=C\CCCCCCCC(=O)OC(COC(C)=O)COC(=O)CCCCCCCCCCCCCCC (racemic) [PLAG, 1-palmitoyl-2-linoleoyl-3-acetylglycerol]
ROS production initiated [1]: 15 min
return to homeostatic levels of intracellular ROS [1]: 60 min
ROS formation starts [2]: 2.5 min
ROS returns to homeostatic levels [2]: 10 min
IMQ-induced NETosis (NETosis of dHL-60 cells): promotes
level of HMGB1 and S100A9 induced by radiation (HMGB1 and S100A9): significantly decreased
body weight Day 9 ([3]; ChemoRT + PLAG 100 mg/kg): 23.98 ± 2.80 g
oral mucosa epithelial thickness ([3]; ChemoRT + PLAG 100 mg/kg): 58.06±24.97 μm
ulceration area percentage ([3]; ChemoRT + PLAG 100 mg/kg): 29.32±5.40%
CXCL2 mRNA expression in tongues (relative band intensity) ([3]; ChemoRT + PLAG 250 mg/kg): 0.23±0.48 AU
IL-6 in tongue tissue extracts ([3]; ChemoRT + PLAG 250 mg/kg): 8.13 ± 1.19 pg/mg
IL-6 mRNA expression in tongues (relative band intensity) ([3]; ChemoRT + PLAG 250 mg/kg): 1.34±1.06 AU
MIP-2 in tongue tissue extracts ([3]; ChemoRT + PLAG 250 mg/kg): 2.69 ± 0.38 pg/mg
body weight Day 9 ([3]; ChemoRT + PLAG 250 mg/kg): 26.46 ± 1.68 g
oral mucosa epithelial thickness ([3]; ChemoRT + PLAG 250 mg/kg): 85.81±12.24 μm
ulceration area percentage ([3]; ChemoRT + PLAG 250 mg/kg): 1.45±2.36%
P-MLKL relative band intensity in tongue lysates ([3]; ChemoRT+PLAG): 3.67±2.56 AU
P-RIPK1 relative band intensity in tongue lysates ([3]; ChemoRT+PLAG): 0.61±0.45 AU
P-RIPK3 relative band intensity in tongue lysates ([3]; ChemoRT+PLAG): 1.27±0.83 AU
body weight Day 0 ([3]; ChemoRT+PLAG): 25.78 ± 1.04 g
neutrophil infiltration in the tongues (IHC NIMP-R14) ([3]; ChemoRT+PLAG): not observed
serum IL-6 [3, 4]: 205.75 ± 30.41 pg/mL
serum MIP-2 [3, 4]: 4.42 ± 4.04 pg/mL
HMGB1 localization in tongue (IHC) ([3]; PLAG-treated mice): remained in the nucleus
body weight Day 9 ([3]; mouse, in vivo): 25.66 ± 0.70 g
